Experiment [1] addresses HSV-1 thymidine kinase (TK) (Human herpesvirus 1, UniProt P0DTH5). Description: Inhibition of HSV-1 thymidine kinase (3H-thymidine phosphorylation, DEAE-cellulose disc assay). The format is biochemical. As for the experimental part: (§1) In this test procedure, the assay mixture contains […] Tris HCl, pH 8, 5 mmol magnesium chloride, 5 mmol ATP, […] 3H-thymidine (50 Ci/mmol), suitably diluted enzyme preparation and various concentrations of test compounds in a total volume of […]. Assays are incubated at 37° C. for 30 minutes and the reaction is terminated by immersion in a boiling water bath for 2 minutes. […] aliquots from each assay are then dried on to DEAE-cellulose paper discs and the unphosphorylated 3H-thymidine is removed by washing in 4 mmol ammonium formate. The radioactivity remaining bound to the discs is then measured by scintillation spectrophotometry. The degree of inhibition at each concentration of test compound is expressed as a percentage of the control reaction (100%) after subtracting a measured blank value which represents the amount of radioactivity bound to the disc from a reaction containing heat-inactivated enzymes. The IC50 value, namely the concentration of test compound which inhibits enzyme activity by 50%, is then calculated.

The target of experiment [2] is HSV-2 thymidine kinase (TK) (Human herpesvirus 2, UniProt P04407). Kind of experiment: Inhibition of HSV-2 thymidine kinase (3H-thymidine phosphorylation, DEAE-cellulose disc assay). It counts as biochemical. As for the experimental part:
as §1

The mark [3] stands for this setting: 37° C., 30 minutes, pH 8, 3H-thymidine substrate, read-out: Activity against HSV-1 TK IC50 (nmol).
[4] abbreviates: 37° C., 30 minutes, pH 8, 3H-thymidine substrate, read-out: Activity against HSV-2 TK IC50 (nmol).

In patent US6162918A, “Xanthene and acridine derivatives” (priority 1996, dated 2000) one finds IC50 data, which are given here for twelve compounds.

Where two headings read alike, the source gives them in different places.

HSV-1 thymidine kinase (TK), sequence (P0DTH5 whole entry): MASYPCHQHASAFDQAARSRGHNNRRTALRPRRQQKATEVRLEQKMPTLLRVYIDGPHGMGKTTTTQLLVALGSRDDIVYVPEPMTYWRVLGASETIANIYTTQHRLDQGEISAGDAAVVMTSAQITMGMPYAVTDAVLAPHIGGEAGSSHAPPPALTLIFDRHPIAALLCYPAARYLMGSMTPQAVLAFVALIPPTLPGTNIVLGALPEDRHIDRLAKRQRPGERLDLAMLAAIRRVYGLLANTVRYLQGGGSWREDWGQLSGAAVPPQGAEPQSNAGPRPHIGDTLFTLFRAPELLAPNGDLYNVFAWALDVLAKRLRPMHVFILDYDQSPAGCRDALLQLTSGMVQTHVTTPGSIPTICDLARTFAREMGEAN
HSV-2 thymidine kinase (TK), sequence (P04407 whole entry): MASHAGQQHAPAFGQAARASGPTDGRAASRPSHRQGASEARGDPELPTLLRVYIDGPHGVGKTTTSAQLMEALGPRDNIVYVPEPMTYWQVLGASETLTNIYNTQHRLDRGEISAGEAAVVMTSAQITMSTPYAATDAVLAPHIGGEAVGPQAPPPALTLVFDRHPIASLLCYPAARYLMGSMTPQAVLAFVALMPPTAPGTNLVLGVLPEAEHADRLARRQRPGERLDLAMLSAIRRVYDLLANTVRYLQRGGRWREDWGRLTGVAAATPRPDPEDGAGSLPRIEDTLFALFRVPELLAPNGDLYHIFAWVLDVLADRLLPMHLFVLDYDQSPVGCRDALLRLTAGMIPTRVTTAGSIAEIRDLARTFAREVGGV

By IC50 is commonly meant the concentration needed to halve the response being measured. Take `CC1(C)CC(=O)C2=C(C1)NC1=C(C(=O)CC(C)(C)C1)C2c1ccc(Cl)c(Cl)c1` [D, 9-(3,4-dichlorophenyl)-3,4,6,7,9,10-hexahydro-3,3,6,6-tetramethyl-1,8(2H,5H)-acridinedione]: the IC50 in experiment [1] (setting [3]) amounted to 9.4 nM; in experiment [2] (setting [4]) it was 0.64 nM.
For `CC1(C)CC(=O)C2=C(C1)NC1=C(C(=O)CC(C)(C)C1)C2c1ccc(Cl)c(Sc2ccncc2)c1` [K], in that order: 2.6 nM and 0.54 nM.
For the compound `CCc1cn([C@H]2C[C@H](O)[C@@H](CNC(=O)C3c4ccccc4Oc4ccccc43)O2)c(=O)[nH]c1=O` [2',5'-dideoxy-5-ethyl-5'-[(9-xanthenyl)carboxamido]uridine, reference compound], the IC50 in experiment [1] was 4.2 nM; in experiment [2], 0.34 nM.
As for `CC1(C)CC(=O)C2=C(C1)NC1=C(C(=O)CC(C)(C)C1)C2c1ccc(Cl)c(Oc2ccncc2)c1` [Compound I, 9-[4-chloro-3-(4-pyridyloxy)-phenyl]-3,4,6,7,9,10-hexahydro-3,3,6,6-tetramethyl-1,8(2H,5H)-acridinedione], the IC50 turned out to be 0.8 nM in experiment [1] (setting [3]) and 0.19 nM in experiment [2] (setting [4]).
For `CC1(C)CC(=O)C2=C(C1)NC1=C(C(=O)CC(C)(C)C1)C2c1ccc(Br)cc1` [H, 9(4-Bromophenyl)-3,4,6,7,9,10-hexahydro-3,3,6,6-tetramethyl-1,8(2H,5H)-acidinedione], in that order: 12 nM and 1.5 nM.
For `CC1(C)CC(=O)C2=C(C1)NC1=C(C(=O)CC(C)(C)C1)C2c1cccc(Oc2ccccc2)c1` [G, 3,4,6,7,9,10-hexahydro-3,3,6,6-tetramethyl-9-(3-phenoxyphenyl)-1,8(2H,5H)-acridinedione] the same measures were 5.8 nM and 1.1 nM.
For `CC1(C)CC(=O)C2=C(C1)NC1=C(C(=O)CC(C)(C)C1)C2c1ccc(Cl)c(F)c1` [E, 9-(4-chloro-3-fluorophenyl)-3,4,6,7,9,10-hexahydro-3,3,6,6-tetramethyl-1,8(2H,5H)-acridinedione], in that order: 5.9 nM and 0.44 nM.
Regarding `CC1(C)CC(=O)C2=C(C1)NC1=C(C(=O)CC(C)(C)C1)C2c1ccc(Cl)c(-n2cccc2)c1` [F, 9-[4-chloro-3-(1H-pyrrol-1-yl)phenyl]-3,4,6,7,9,10-hexahydro-3,3,6,6-tetramethyl-1,8(2H,5H)-acridinedione], the IC50 in experiment [1] (setting [3]) came to 0.44 nM; in experiment [2] (setting [4]), 0.18 nM.
For `CC1(C)CC(=O)C2=C(C1)NC1=C(C(=O)CC(C)(C)C1)C2c1ccc(Cl)c(-c2ccccc2)c1` [C, 9-[6-chloro-3-(1,1'-biphenylyl)]-3,4,6,7,9,10-hexahydro-3,3,6,6-tetramethyl-1,8(2H,5H)-acridinedione] the same measures were 0.52 nM and 0.27 nM.
For `CC1(C)CC(=O)C2=C(C1)NC1=C(C(=O)CC(C)(C)C1)C2c1ccc(Cl)c(Oc2ccccc2)c1` [A, 9-(4-chloro-3-phenoxyphenyl)-3,4,6,7,9,10-hexahydro-3,3,6,6-tetramethyl-1,8(2H,5H)-acridinedione] the same measures were 0.3 nM and 0.095 nM.
For `CC1(C)CC(=O)C2=C(C1)NC1=C(C(=O)CC(C)(C)C1)C2c1ccc(Cl)c(Sc2ccccc2)c1` [B, 9-(4-chloro-3-phenylthiophenyl)-3,4,6,7,9,10-hexahydro-3,3,6,6-tetramethyl-1,8(2H,5H)-acridinedione] the same measures were 0.56 nM and 0.12 nM.
As to `CC1(C)CC(=O)C2=C(C1)NC1=C(C(=O)CC(C)(C)C1)C2c1ccc([N+](=O)[O-])c(OCc2ccccc2)c1` [J, 9-(3-benzyloxy-4-nitrophenyl)-3,4,6,7,9,10-hexahydro-3,3,6,6-tetramethyl-1,8(2H,5H)-acridinedione], the half-inhibitory concentration (IC50) in experiment [1] (setting [3]) came out at 0.9 nM; in experiment [2] (setting [4]), 0.38 nM.
